Entries after “also recorded” stand apart in the source; their conditions may differ.
Experiments:
p21^WAF1 = experiment: Western blot of p21 expression in LNCaP cells; assay type: cell-based, human; details: 100 nM, 48 hours
Experimental: Cells were incubated for 5 minutes at room temperature in 100 μl of 1% SDS lysis buffer. Samples were then collected into eppendorfs, incubated for 10 minutes at 100° C., and centrifuged at 14,000 rpm for 10 minutes. Supernatants were transferred into new tubes and pellets were discarded. Determination of protein concentration was conducted using the Bradford assay. […] protein of each sample was loaded on PVDF membranes and incubated with anti p21 antibody (Santa Cruz Biotechnology, Santa Cruz, Calif., U.S.A).

[1] = system: LNCaP human prostate carcinoma cell line; experiment: Neutral-Red viability assay in LNCaP cells; assay type: cell-based; details: for antiproliferative effect (viability assay): 30 μM, 24 hours
Experimental: (§1) Cell culture: The following human cell lines (1) LNCaP—human prostate carcinoma cell line (2) MCF-7—human breast carcinoma cell line, and (3) GA—human melanoma cell line (3) HaCaT—immortalizes normal human skin keratinocytes were tested. Cells were inoculated in RPMI 1640 (LNCaP and GA) or Dulbecco modified eagle medium-DMEM (MCF-7 and HaCaT) supplemented with 10% heat inactivated fetal calf serum, 200 μM L-glutamine, 10 units/ml Penicillin and 10 μgr/ml Streptomycin. The cells were kept at 37° C. in a 5% CO2 humidified atmosphere.
(§2) The direct effect of the compound compared to free calcipotriene and vitamin D3 in the viability and proliferation level of cultured cells was assessed in vitro using cultured Cells. The cells were inoculated in 0.2 ml fresh medium. After 24 at 37° C. in a 5% CO2 humidified atmosphere, the medium was replaced with a fresh medium containing 0.5% ethanol and 30, 5, 1 and 0.1 μM test substance. Medium containing 0.5% ethanol without test compounds was used for the control cells. Cell growth and proliferation was assayed by Neutral-Red assay (evaluated by measuring the absorbance of the dye following 3 hours incubation, in 540 nm) at the stated times.

MCF-7 cells = experiment: MTT viability assay in MCF-7 cells; assay type: cell-based, human; details: MCF-7, 1 or 5 μmol/L, 3 to 6 days
Experimental: (§3) LNCaP and MCF-7 cells were plated in 96-well plates and treated with 1 or 5 μmol/L test substances for 3 to 6 days. Cell viability following treatments was assayed by MTT. All experiments were conducted at least twice, and weighted results from all experiments are shown. *p<0.005 of BGP-15 relative to vitamin D3, **p<0.001 of BGP-15 relative to vitamin D3 and to calcipotriene.
(§4) LNCaP and MCF-7 cell-lines are widely used models for human prostate and mammary carcinomas respectively. Following BGP-15 purification and structural elucidation (FIG. 12), the effect of calcipotriene and BGP-15 on the viability of both LNCaP and MCF-7 cells was tested in-vitro by using the MTT assay, and was compared with the effect obtained by vitamin D3 (calcitriol).

LNCaP cells = experiment: MTT viability assay in LNCaP cells; assay type: cell-based, human; details: 1 or 5 μmol/L, 3 to 6 days
Experimental: as §3, §4

[2] = CPT metabolite in rat skin
Excerpt: LC/MS analysis has confirmed that the metabolite peak appeared at BGP-13's retention time was indeed this derivative (FIG. 10). […] The formation of reduced levels of this metabolite is probably due to the poor penetration of calcipotriol into the skin. Therefore, intracellular BGP-13 is an […] product of the internalized CPT with reactive oxygen species (ROS) such as singlet oxygen. This metabolic pathway of calcipotriol may have a role in scavenging ROS and reducing inflammatory processes in cells and tissue.

[3] = Calcium metabolic model in rats; assay type: in vivo; details: 20 ng daily for six days
Experimental: The clinical use of vitamin D3 as an anti-cancer agent is limited by its toxicity and concerns the possible development of hypercalcemia or hypercalciuria in treated patients. The calcium levels in rat blood, and the total daily secretion of calcium in rat urine were evaluated following daily treatments of 20 ng of vitamin D3, calcipotriene or BGP-15 for six days as shown in FIG. 15.

HaCaT keratinocytes = experiment: Cellular entry into HaCaT keratinocytes by HPLC; assay type: in vitro ADME, human; details: for entry into keratinocytes: HaCaT cultures, HPLC of external and internal fractions; for cell internalization normalized per cell: 0.5×10^6 to 9.7×10^6 cells, data not shown
Experimental: (§5) External and internal fractions of HaCaT cultures (0.5×10^6, 1×10^6, 3×10^6, 5×10^6 and 9.7×10^6 cells) were analyzed by HPLC.

[4] = Reaction with singlet oxygen (endoperoxide-naphthalene trapper); details: room temperature, product detected by TLC, LC-MS
Excerpt: The trapper, endoperoxide-naphthalene, was converted into naphthalene and released exclusively singlet oxygen at room temperature (FIG. 11). Combining calcipotriol with the endoperoxide has created a new product that was first detected by TLC as BGP-13. LC-MS has confirmed that this indeed is the substance.

HT-29, MCF-7, and LNCaP = experiment: Activity against cell lines of human origin; assay type: cell-based
[5] = system: HT-29 human colon cancer cells; experiment: In vivo anti-tumor activity, HT-29 tumors in nude mice; details: for tumor size relative to controls at 30 days after cancer cell injection / size of tumors versus vehicle-treated control mice: HT-29 sc in nude mice; for tumor size relative to controls at 30 days after cancer cell injection: 2 μg/kg ip; for size of tumors versus vehicle-treated control mice: 2 μg/kg ip from day 20; for weight loss or observable adverse effects: nude mice, 2 μg/kg ip three times per week
Experimental: In vivo anti-tumor activity of the novel derivatives of calcipotriol: Experiments were carried out to determine the ability of BGP-13 and BGP-15 to inhibit the growth of human tumor cells in vivo. […] Nude mice received a subcutaneous (sc) injection of HT-29 human colon cancer cells. At various time intervals after the administration of the tumor cells, the mice received three times per week intraperitoneal injections of BGP-13 and BGP-15 at a dose of 2 μg/kg. […] In one experiment 12 nude mice, which received a s.c. injection of HT-29, were divided into three groups. Starting from day 20 after tumor injection, 2 groups of the mice received ip injections of BGP-13 and BGP-15 respectively. […] At 30 days after cancer cell injection, the tumors in the treated group were half the size of the tumors in controls (FIG. 14).

HaCaT cells = experiment: MTT and NR viability assays for HaCaT cells (FIG. 7); assay type: cell-based, human; design: dose or concentration left out as unconfirmed; details: (for 24 hours)
Experimental: FIG. 7 is a bar graph showing the results of a MTT and NR viability assays for HaCaT cells treated with 30 µM (for 24 hours) of 1α,25(OH)2 vitamin D3, calcipotriol (CPT), and BGP-13.
Viability of HaCaT cells in the presence of three vitamin D3 derivatives, 1α,25(OH)2 D3 (calcitriol), and BGP-013 was studied by MTT assay.

[6] = Stability in the external medium; assay type: in vitro ADME; details: relative to CPT
Experimental: as §5

[7] = system: MCF-7 human breast carcinoma cell line; experiment: Neutral-Red viability assay in MCF-7 cells; assay type: cell-based; details: MCF-7, 30 μM, 24 hours
Experimental: as §1, §2

[8] = system: HaCaT immortalizes normal human skin keratinocytes; experiment: Neutral-Red viability assay in HaCaT cells; assay type: cell-based
Experimental: as §1, §2

Structure (SMILES) | p21 expression (p21^WAF1) | antiproliferative effect (viability assay) [1] | cell survival (MTT) (MCF-7 cells) | cell survival (MTT) (LNCaP cells) | hypercalcemia (calcium levels in rat blood) [3] | hypercalciuria (total daily secretion of calcium in rat urine) [3] | entry into keratinocytes (HaCaT keratinocytes) | cell internalization normalized per cell (HaCaT keratinocytes; HaCaT) | activity against cell lines of human origin (HT-29, MCF-7, and LNCaP) | tumor size relative to controls at 30 days after cancer cell injection [5] | size of tumors versus vehicle-treated control mice [5] | weight loss or observable adverse effects [5] | further results
C=C1/C(=C\C=C2/CCC[C@]3(C)[C@@H]([C@H](C)CCCC(C)(C)O)CC[C@@H]23)C[C@@H](O)C[C@@H]1O [calcitriol] | increased p21 expression | less efficacious; also recorded: relatively lower anticancer effect | reduce prostate and breast cancer cells survival | reduce prostate and breast cancer cells survival |  |  |  |  |  |  |  |  | 
C=C1/C(=C\C=C2/CCC[C@]3(C)[C@@H]([C@H](C)/C=C/[C@@H](O)C4CC4)CC[C@@H]23)C[C@@H](O)C[C@@H]1O [calcipotriol, reference compound] | increased p21 expression | less efficacious; also recorded: relatively lower anticancer effect | reduce prostate and breast cancer cells survival | reduce prostate and breast cancer cells survival | do not generate hypercalcemia | do not generate hypercalcemia or hypercalciuria | comparable | constant even at a high cell density |  |  |  |  | metabolite BGP-13 in rat skin [2]: found at low levels; action towards singlet oxygen [4]: antioxidant/quencher of singlet oxygen
C=C1/C(=C\C=C2/CCC[C@@]3(C)C2CC[C@@H]3C(C)/C=C/C(Cl)C2CC2)C[C@@H](O)C[C@@H]1O (some centres unmarked) [Calci-Cl] |  |  | reduce prostate and breast cancer cells survival | reduce prostate and breast cancer cells survival | do not generate hypercalcemia | do not generate hypercalcemia or hypercalciuria |  |  | active at least against three cell lines | half the size | significantly smaller | did not cause either weight loss or any observable adverse effects | 
C=C1/C(=C\C=C2/CCC[C@@]3(C)C2CC[C@@H]3C(C)C2C=C(C3CC3)OO2)C[C@@H](O)C[C@@H]1O (some centres unmarked) [Compound II, Calci-dioxole] | not mediated through increased p21 expression | much more potent antiproliferative effect on the LNCaP and MCF-7 cancer cells as compared to HaCaT cells; also recorded: significantly high efficacy; also recorded: much more potent antiproliferative effect on LNCaP and MCF-7 cancer cells than on HaCaT cells; also recorded: much more potent antiproliferative effect on LNCaP cells than calcipotriol alone |  |  |  |  | approximately 60 % of the applied substance | constant even at a high cell density | active at least against three cell lines | half the size | significantly smaller | did not cause either weight loss or any observable adverse effects | inhibition of proliferation of keratinocytes (MTT assay) (HaCaT cells): inhibited the proliferation of the keratinocytes at the same rate and extent as CPT or calcitriol; mortality (viability assay) ([1]; 5 μM, 6 days): higher mortality than cells exposed to calcipotriol alone; antiproliferative effect (viability assay) ([1]; listed as BGP-13): much more potent antiproliferative effect on LNCaP cells than calcipotriol alone; intracellular permeation as fraction of the total quantity momentarily present in the cell culture (HaCaT keratinocytes; HaCaT): enhanced intracellular permeation increased its stability by preventing degradation in the medium; stability in the medium [6]: significantly less stable in the medium relative to CPT; antiproliferative effect (viability assay) [7]: much more potent antiproliferative effect on the LNCaP and MCF-7 cancer cells as compared to HaCaT cells; also recorded: much more potent antiproliferative effect on LNCaP and MCF-7 cancer cells than on HaCaT cells; selectivity for carcinogenic versus non-carcinogenic cells ([8]; HaCaT compared with cancer cell lines): more selective for carcinogenic cells; also recorded: might have a less potent effect on non-carcinogenic cells than on carcinogenic cells; potency of treatment (viability assay) ([8]; HaCaT, 5 μM and 1 μM, 6 days): less potent than treatments with calcitriol and calcipotriol
